The experiment deals with OVCAR-5 complex spheroids, viability. Put plainly: Anticancer human tumor OVCAR-5 cell line growth inhibition.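 For all read-outs here: spheroids exposed to agents for seven days.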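 For viability, T/C: 100% = DMSO vehicle control wells viability.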 The following applies: for viability, T/C: stronger effect = lower value. The method, boiled down: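 Complex spheroids of tumor cells with HUVEC and human MSCs, exposed to iadademstat combined with other agents. Each agent tested in half-log steps from near clinical Cmax (else 10 microM top), DMSO ≤0.25%.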

Setting [1] is: curve of first compound, second compound 0.1 µM.
[2] abbreviates: curve of first compound, second compound 0.316 µM.
The mark [3] stands for this setting: curve of first compound, second compound 1 µM.
Where [4] appears, read: curve of first compound, second compound 3.16 µM.
The mark [5] stands for this setting: curve of first compound, second compound 10 µM.
Setting [6] is: second compound 0.1 µM, first compound 0.000316 µM.
Where [7] appears, read: second compound 0.1 µM, first compound 0.001 µM.
The mark [8] stands for this setting: second compound 0.1 µM, first compound 0.00316 µM.
The mark [9] stands for this setting: second compound 0.1 µM, first compound 0.01 µM.
The mark [10] stands for this setting: second compound 0.1 µM, first compound 0.0316 µM.
Where [11] appears, read: second compound 0.1 µM, first compound 0.1 µM.
The mark [12] stands for this setting: second compound 0.316 µM, first compound 0.000316 µM.
The mark [13] stands for this setting: second compound 0.316 µM, first compound 0.001 µM.
[14] abbreviates: second compound 0.316 µM, first compound 0.00316 µM.
Setting [15] is: second compound 0.316 µM, first compound 0.01 µM.
Setting [16] is: second compound 0.316 µM, first compound 0.0316 µM.
[17] abbreviates: second compound 0.316 µM, first compound 0.1 µM.
[18] abbreviates: second compound 1 µM, first compound 0.000316 µM.
The mark [19] stands for this setting: second compound 1 µM, first compound 0.001 µM.
Where [20] appears, read: second compound 1 µM, first compound 0.00316 µM.
[21] abbreviates: second compound 1 µM, first compound 0.01 µM.
Setting [22] is: second compound 1 µM, first compound 0.0316 µM.
Setting [23] is: second compound 1 µM, first compound 0.1 µM.
The mark [24] stands for this setting: second compound 3.16 µM, first compound 0.000316 µM.
Where [25] appears, read: second compound 3.16 µM, first compound 0.001 µM.
Where [26] appears, read: second compound 3.16 µM, first compound 0.00316 µM.
Setting [27] is: second compound 3.16 µM, first compound 0.01 µM.
Setting [28] is: second compound 3.16 µM, first compound 0.0316 µM.
The mark [29] stands for this setting: second compound 3.16 µM, first compound 0.1 µM.
Where [30] appears, read: second compound 10 µM, first compound 0.000316 µM.
[31] abbreviates: second compound 10 µM, first compound 0.001 µM.
Setting [32] is: second compound 10 µM, first compound 0.00316 µM.
Where [33] appears, read: second compound 10 µM, first compound 0.01 µM.
The mark [34] stands for this setting: second compound 10 µM, first compound 0.0316 µM.
Setting [35] is: second compound 10 µM, first compound 0.1 µM.

“And” between values parts separate entries of the source, which are not always exact repeats. Equal entries are not always repeated.

The record followed here is PubChem BioAssay AID1918956 (Molecular Pharmacology Branch, DTP, NCI, 2023).

As usually defined, the IC50 is the midpoint of a concentration-inhibition curve. As usually defined, the viability, T/C is the result in the treated group divided by that in the control group, in per cent. On to `CC(C)CC(NC(=O)C(Cc1ccccc1)NC(=O)c1cnccn1)B(O)O` (centres undefined) + NC1CC1c1ccc(-c2cccc(O)c2)cc1, for which the concentration for half-maximal inhibition (IC50) is, setting by setting: under setting [1], 7.35 nM; under setting [2], 6.68 nM; under setting [3], 6.31 nM; under setting [4], 4.44 nM; under setting [5], 4.52 nM. For the same molecule, the viability, T/C by setting is: under setting [6], 111%; under setting [7], 103%; under setting [8], 75.8%; under setting [9], 40.9%; under setting [10], 14.8%; under setting [11], 5.74%. Also, the viability, T/C was 111% under setting [12]; 98.8% under setting [13]; 74.6% under setting [14]; 37.5% under setting [15]; 10.7% under setting [16]; 3.96% under setting [17]. Moreover, the viability, T/C under setting [18] was 100%; the viability, T/C under setting [19] is 103%; the viability, T/C under setting [20] is 71.6%; the viability, T/C under setting [21] was 35%; the viability, T/C under setting [22] was 10.2%; the viability, T/C under setting [23] is 2.99%. The viability, T/C was 101% under setting [24]; 70.5% under setting [25]; 65.7% under setting [26]; 32.3% under setting [27]; 12.6% under setting [28]; 3.14% under setting [29]. The viability, T/C is 81% under setting [30]; 87% under setting [31]; 57.4% under setting [32]; 27.6% under setting [33]; 8.96% under setting [34]; 1.75% under setting [35].
On to `Nc1ncn(C2CC(O)C(CO)O2)c(=O)n1` (centres undefined) + NC1CCC(NC2CC2c2ccccc2)CC1, for which the 50% inhibitory concentration (IC50) is > 1000 nM under setting [1]; > 1000 nM under setting [2]; > 1000 nM under setting [3]; > 1000 nM under setting [4]; > 1000 nM under setting [5]. For the same molecule, the viability, T/C under setting [8] was 103%; the viability, T/C under setting [9] was 104%; the viability, T/C under setting [10] was 94.4%; the viability, T/C under setting [11] is 89.5%; the viability, T/C (second compound 0.1 µM, first compound 0.316 µM) is 75.5%; the viability, T/C (second compound 0.1 µM, first compound 1 µM) is 79%. In addition, the viability, T/C under setting [14] is 97.7%; the viability, T/C under setting [15] was 104%; the viability, T/C under setting [16] is 81.4%; the viability, T/C under setting [17] is 79.6%; the viability, T/C (second compound 0.316 µM, first compound 0.316 µM) was 78.4%; the viability, T/C (second compound 0.316 µM, first compound 1 µM) is 78.4%. For the same molecule, the viability, T/C runs as follows: under setting [20], 91.8%; under setting [21], 82.3%; under setting [22], 79.6%; under setting [23], 81.3%; (second compound 1 µM, first compound 0.316 µM) 76%; (second compound 1 µM, first compound 1 µM) 73.7%. For the same molecule, the viability, T/C was 91.6% under setting [26]; 93.3% under setting [27]; 78.2% under setting [28]; 76.8% under setting [29]; 70.5% (second compound 3.16 µM, first compound 0.316 µM); 66.6% (second compound 3.16 µM, first compound 1 µM). In addition, the viability, T/C reads like this: under setting [32], 83.7%; under setting [33], 83.1%; under setting [34], 79.1%; under setting [35], 67.1%; (second compound 10 µM, first compound 0.316 µM) 61.9%; (second compound 10 µM, first compound 1 µM) 66%.
In the case of `CC1(C)CCC(CN2CCN(c3ccc(C(=O)NS(=O)(=O)c4ccc(NCC5CCOCC5)c([N+](=O)[O-])c4)c(Oc4cnc5[nH]ccc5c4)c3)CC2)=C(c2ccc(Cl)cc2)C1`, the viability, T/C was 98% and 105% (compound 0.0316 µM); 101% and 98.1% (compound 0.1 µM); 95.8% and 105% (compound 0.316 µM); 107% and 105% (compound 1 µM); 107% and 103% (compound 3.16 µM); 33.7% and 40.2% (compound 10 µM). Besides, the concentration for half-maximal inhibition (IC50) (curve of compound) is 7590 nM and 8360 nM.
In the case of `CC(C)CC(NC(=O)C(Cc1ccccc1)NC(=O)c1cnccn1)B(O)O` (centres undefined), the viability, T/C (compound 0.000316 µM) was 101% and 95.8%; the viability, T/C (compound 0.001 µM) was 108% and 93.7%; the viability, T/C (compound 0.00316 µM) was 79.5% and 72.4%; the viability, T/C (compound 0.01 µM) was 44.7% and 39.4%; the viability, T/C (compound 0.0316 µM) was 19.9% and 15.4%; the viability, T/C (compound 0.1 µM) is 10% and 7.18%. In addition, the IC50 (curve of compound) is 8.4 nM and 6.94 nM.
For `CC(C)CC(NC(=O)CNC(=O)c1cc(Cl)ccc1Cl)B1OC(=O)CC(CC(=O)O)(C(=O)O)O1` (centres undefined) + NC1CCC(NC2CC2c2ccccc2)CC1, the IC50 by setting is: under setting [1], > 100 nM; under setting [2], > 100 nM; under setting [3], > 100 nM; under setting [4], > 100 nM; under setting [5], > 100 nM. In addition, the viability, T/C is 96.8% under setting [6]; 95% under setting [7]; 108% under setting [8]; 91.5% under setting [9]; 89.7% under setting [10]; 71.8% under setting [11]. For the same molecule, the viability, T/C under setting [12] is 97.5%; the viability, T/C under setting [13] was 112%; the viability, T/C under setting [14] is 113%; the viability, T/C under setting [15] was 83.6%; the viability, T/C under setting [16] was 85.2%; the viability, T/C under setting [17] was 70.8%. The viability, T/C was 103% under setting [18]; 93.7% under setting [19]; 110% under setting [20]; 95.1% under setting [21]; 80.7% under setting [22]; 71.4% under setting [23]. Further, the viability, T/C is 101% under setting [24]; 103% under setting [25]; 95.6% under setting [26]; 76.5% under setting [27]; 77.7% under setting [28]; 64.6% under setting [29]. For the same molecule, the viability, T/C by setting is: under setting [30], 98.1%; under setting [31], 79.8%; under setting [32], 89.1%; under setting [33], 86.7%; under setting [34], 76.5%; under setting [35], 56.6%.
